What all share (test): biochemical
One test has as its target MERS-CoV 3CL^pro (Middle East respiratory syndrome-related coronavirus, UniProt K9N7C7).
The next test has as its target T1, HCoV-229E 3CL^pro (Human coronavirus 229E, UniProt P0C6X1).
T1 construct: […]; made in house; host or cells: E. coli BL21 (DE3)

The target of the next test is SARS-CoV 3CL^pro (Severe acute respiratory syndrome coronavirus, UniProt P0C6X7).
The target in another test is T2, SARS-CoV-2 3CL^pro (Severe acute respiratory syndrome coronavirus 2, UniProt P0DTD1).
T2 construct: […]; made in house; host or cells: Escherichia coli

Structures are written as SMILES.

T1 sequence (P0C6X1 2966-3267): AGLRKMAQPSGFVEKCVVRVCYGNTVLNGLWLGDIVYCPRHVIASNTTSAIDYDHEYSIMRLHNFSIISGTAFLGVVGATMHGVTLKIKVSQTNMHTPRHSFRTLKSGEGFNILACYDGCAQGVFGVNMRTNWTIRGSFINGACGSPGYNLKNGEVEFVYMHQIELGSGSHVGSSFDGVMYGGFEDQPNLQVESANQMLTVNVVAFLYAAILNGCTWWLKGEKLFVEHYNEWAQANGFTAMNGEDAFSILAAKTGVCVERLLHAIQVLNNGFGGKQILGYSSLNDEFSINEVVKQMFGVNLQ
Chain of MERS-CoV 3CL^pro (K9N7C7 3248-3553): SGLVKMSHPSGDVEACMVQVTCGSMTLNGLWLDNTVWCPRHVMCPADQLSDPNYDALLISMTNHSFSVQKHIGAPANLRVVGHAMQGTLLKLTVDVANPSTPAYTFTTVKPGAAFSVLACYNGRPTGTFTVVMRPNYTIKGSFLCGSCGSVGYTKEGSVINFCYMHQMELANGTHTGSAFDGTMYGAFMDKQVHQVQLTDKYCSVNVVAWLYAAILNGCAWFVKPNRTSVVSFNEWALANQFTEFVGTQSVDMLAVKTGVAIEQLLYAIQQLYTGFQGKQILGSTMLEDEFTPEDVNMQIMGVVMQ

Consider `CC1(C)C[C@@H](CN(NC(=O)[C@@H]2[C@@H]3[C@H](CN2C(=O)[C@@H](NC(=O)[C@@H]2CC2(F)F)C(C)(C)C)C3(C)C)C(=O)[C@H](F)Cl)C(=O)N1` [Example 21, (1S)-N-[(1S)-1-[(1R,2S,5S)-2-[[[(2R)-2-chloro-2-fluoro-acetyl]-[[(3S)-5,5-dimethyl-2-oxo-pyrrolidin-3-yl]methyl]amino]carbamoyl]-6,6-dimethyl-3-azabicyclo[3.1.0]hexane-3-carbonyl]-2,2-dimethyl-propyl]-2,2-difluoro-cyclopropanecarboxamide], for which the IC50 against MERS-CoV 3CL^pro was 402 nM; against HCoV-229E 3CL^pro, 778 nM; against SARS-CoV 3CL^pro, 22 nM; at SARS-CoV-2 3CL^pro, 14 nM.
With `CC(C)(C)[C@H](NC(=O)[C@@H]1CC1(F)F)C(=O)N1C[C@@H]2CCC[C@@H]2[C@H]1C(=O)NN(C[C@H]1C(=O)N[C@@H]2C[C@@H]21)C(=O)[C@@H](F)Cl` [Example 37, (1S)-N-[(1S)-1-[(3S,3aS,6aR)-3-[[[(2S)-2-chloro-2-fluoro-acetyl]-[[(1R,4S,5R)-3-oxo-2-azabicyclo[3.1.0]hexan-4-yl]methyl]amino]carbamoyl]-3,3a,4,5,6,6a-hexahydro-1H-cyclopenta[c]pyrrole-2-carbonyl]-2,2-dimethyl-propyl]-2,2-difluoro-cyclopropanecarboxamide], the IC50 against MERS-CoV 3CL^pro stood at 320 nM; against HCoV-229E 3CL^pro, 191 nM; against SARS-CoV 3CL^pro it was 21 nM; at SARS-CoV-2 3CL^pro, 17 nM.
In the same order, the values of `CC1(C)C[C@H](CN(NC(=O)[C@@H]2[C@H]3CCC[C@H]3CN2C(=O)[C@@H](NC(=O)C(F)F)C(C)(C)C)C(=O)[C@H](F)Cl)C(=O)N1` [Example 10, N-[(1S)-1-[(3S,3aS,6aR)-3-[[[(2R)-2-chloro-2-fluoro-acetyl]-[[(3R)-5,5-dimethyl-2-oxo-pyrrolidin-3-yl]methyl]amino]carbamoyl]-3,3a,4,5,6,6a-hexahydro-1H-cyclopenta[c]pyrrole-2-carbonyl]-2,2-dimethyl-propyl]-2,2-difluoro-acetamide] are 794 nM, 3040 nM, 53 nM and 31 nM.
In the same order, the values of `C[C@H]1C[C@@H](CN(NC(=O)[C@@H]2[C@H]3CCC[C@H]3CN2C(=O)[C@@H](NC(=O)[C@@H]2CC2(F)F)C(C)(C)C)C(=O)[C@H](F)Cl)C(=O)N1` [Example 27, (1S)-N-[(1S)-1-[(3S,3aS,6aR)-3-[[[(2R)-2-chloro-2-fluoro-acetyl]-[[(3S,5S)-5-methyl-2-oxo-pyrrolidin-3-yl]methyl]amino]carbamoyl]-3,3a,4,5,6,6a-hexahydro-1H-cyclopenta[c]pyrrole-2-carbonyl]-2,2-dimethyl-propyl]-2,2-difluoro-cyclopropanecarboxamide] are 63 nM, 30 nM, 10 nM and 6 nM.
Taken in the same sequence, the figures for `C[C@H]1C[C@@H](CN(NC(=O)[C@@H]2[C@@H]3[C@H](CN2C(=O)[C@@H](NC(=O)[C@@H]2CC2(F)F)C(C)(C)C)C3(C)C)C(=O)[C@H](F)Cl)C(=O)N1` [Example 33, (1S)-N-[(1S)-1-[(1R,2S,5S)-2-[[[(2R)-2-chloro-2-fluoro-acetyl]-[[(3S,5S)-5-methyl-2-oxo-pyrrolidin-3-yl]methyl]amino]carbamoyl]-6,6-dimethyl-3-azabicyclo[3.1.0]hexane-3-carbonyl]-2,2-dimethyl-propyl]-2,2-difluoro-cyclopropanecarboxamide] were 72 nM, 26 nM, 13 nM and 6 nM.
Consider `CC[C@H](C)[C@H](NC(=O)C1(F)CC1)C(=O)N1C[C@H]2[C@@H]([C@H]1C(=O)NN(C[C@@H]1CC(C)(C)NC1=O)C(=O)[C@H](F)Cl)C2(C)C` [Example 1a, N-[(1S,2S)-1-[(1R,2S,5S)-2-[[[(2R)-2-chloro-2-fluoro-acetyl]-[[(3S)-5,5-dimethyl-2-oxo-pyrrolidin-3-yl]methyl]amino]carbamoyl]-6,6-dimethyl-3-azabicyclo[3.1.0]hexane-3-carbonyl]-2-methyl-butyl]-1-fluoro-cyclopropanecarboxamide], for which the IC50 on MERS-CoV 3CL^pro worked out at 635 nM; on HCoV-229E 3CL^pro, 421 nM; on SARS-CoV 3CL^pro, 84 nM; at SARS-CoV-2 3CL^pro, 48 nM.
`CC1(C)C[C@@H](CN(NC(=O)[C@@H]2[C@H]3CCC[C@H]3CN2C(=O)[C@@H](NC(=O)[C@@H](F)Cl)C(C)(C)C)C(=O)[C@@H](F)Cl)C(=O)N1` [Example 17]: the IC50 on MERS-CoV 3CL^pro came out at 1870 nM; on HCoV-229E 3CL^pro, 4260 nM; at SARS-CoV 3CL^pro, 19 nM; against SARS-CoV-2 3CL^pro, 16 nM.
In the same order, the values of `CC1(C)C[C@@H](CN(NC(=O)[C@@H]2[C@@H]3[C@H](CN2C(=O)[C@@H](NC(=O)[C@@H]2CC2(F)F)C(C)(C)C)C3(C)C)C(=O)[C@@H](F)Cl)C(=O)N1` [Example 23, (1S)-N-[(1S)-1-[(1R,2S,5S)-2-[[[(2S)-2-chloro-2-fluoro-acetyl]-[[(3S)-5,5-dimethyl-2-oxo-pyrrolidin-3-yl]methyl]amino]carbamoyl]-6,6-dimethyl-3-azabicyclo[3.1.0]hexane-3-carbonyl]-2,2-dimethyl-propyl]-2,2-difluoro-cyclopropanecarboxamide] are 2080 nM, 5430 nM, 85 nM and 54 nM.
On to `CCC(CC)[C@H](NC(=O)[C@@H](F)Cl)C(=O)N1C[C@@H]2CCC[C@@H]2[C@H]1C(=O)NN(C[C@@H]1CC(C)(C)NC1=O)C(=O)[C@@H](F)Cl` [Example 13, (2S)-N-[(1S)-1-[(3S,3aS,6aR)-3-[[[(2S)-2-chloro-2-fluoro-acetyl]-[[(3S)-5,5-dimethyl-2-oxo-pyrrolidin-3-yl]methyl]amino]carbamoyl]-3,3a,4,5,6,6a-hexahydro-1H-cyclopenta[c]pyrrole-2-carbonyl]-2-ethyl-butyl]-2-chloro-2-fluoro-acetamide], for which the IC50 stood at 263 nM on MERS-CoV 3CL^pro, 401 nM on HCoV-229E 3CL^pro, 11 nM on SARS-CoV 3CL^pro and 9 nM against SARS-CoV-2 3CL^pro.
Taken in the same sequence, the figures for `CC[C@H](C)[C@H](NC(=O)C1(F)CC1)C(=O)N1C[C@H]2[C@@H]([C@H]1C(=O)NN(C[C@H]1CC(C)(C)NC1=O)C(=O)[C@H](F)Cl)C2(C)C` [Example 1b, N-[(1S,2S)-1-[(1R,2S,5S)-2-[[[(2R)-2-chloro-2-fluoro-acetyl]-[[(3R)-5,5-dimethyl-2-oxo-pyrrolidin-3-yl]methyl]amino]carbamoyl]-6,6-dimethyl-3-azabicyclo[3.1.0]hexane-3-carbonyl]-2-methyl-butyl]-1-fluoro-cyclopropanecarboxamide] were 234 nM, 131 nM, 18 nM and 13 nM.
Taken in the same sequence, the figures for `C[C@H]1C[C@H](CN(NC(=O)[C@@H]2[C@@H]3[C@H](CN2C(=O)[C@@H](NC(=O)[C@@H]2CC2(F)F)C(C)(C)C)C3(C)C)C(=O)[C@H](F)Cl)C(=O)N1` [Example 31, (1S)-N-[(1S)-1-[(1R,2S,5S)-2-[[[(2R)-2-chloro-2-fluoro-acetyl]-[[(3R,5S)-5-methyl-2-oxo-pyrrolidin-3-yl]methyl]amino]carbamoyl]-6,6-dimethyl-3-azabicyclo[3.1.0]hexane-3-carbonyl]-2,2-dimethyl-propyl]-2,2-difluoro-cyclopropanecarboxamide] were 555 nM, 116 nM, 53 nM and 25 nM.
Taken in the same sequence, the figures for `CCC(CC)[C@H](NC(=O)C(F)F)C(=O)N1C[C@@H]2CCC[C@@H]2[C@H]1C(=O)NN(C[C@@H]1CC(C)(C)NC1=O)C(=O)[C@@H](F)Cl` [Example 12, N-[(1S)-1-[(3S,3aS,6aR)-3-[[[(2S)-2-chloro-2-fluoro-acetyl]-[[(3S)-5,5-dimethyl-2-oxo-pyrrolidin-3-yl]methyl]amino]carbamoyl]-3,3a,4,5,6,6a-hexahydro-1H-cyclopenta[c]pyrrole-2-carbonyl]-2-ethyl-butyl]-2,2-difluoro-acetamide] were 555 nM, 1240 nM, 13 nM and 9 nM.
For the compound `C[C@@H]1C[C@H](CN(NC(=O)[C@@H]2[C@@H]3[C@H](CN2C(=O)[C@@H](NC(=O)[C@@H]2CC2(F)F)C(C)(C)C)C3(C)C)C(=O)[C@@H](F)Cl)C(=O)N1` [Example 32, (1S)-N-[(1S)-1-[(1R,2S,5S)-2-[[[(2S)-2-chloro-2-fluoro-acetyl]-[[(3R,5R)-5-methyl-2-oxo-pyrrolidin-3-yl]methyl]amino]carbamoyl]-6,6-dimethyl-3-azabicyclo[3.1.0]hexane-3-carbonyl]-2,2-dimethyl-propyl]-2,2-difluoro-cyclopropanecarboxamide], the IC50 at MERS-CoV 3CL^pro is 200 nM; against HCoV-229E 3CL^pro it was 70 nM; against SARS-CoV 3CL^pro, 116 nM; against SARS-CoV-2 3CL^pro it was 65 nM.
For `CC(C)(C)[C@H](NC(=O)[C@@H]1CC1(F)F)C(=O)N1C[C@@H]2CCC[C@@H]2[C@H]1C(=O)NN(C[C@@H]1CC2(CC2)NC1=O)C(=O)[C@H](F)Cl` [Example 25], the IC50 was 62 nM on MERS-CoV 3CL^pro, 40 nM on HCoV-229E 3CL^pro, 14 nM on SARS-CoV 3CL^pro and 12 nM against SARS-CoV-2 3CL^pro.

As a reminder, the IC50 is the concentration that gives 50% inhibition. The low end stands for greater potency in that assay, the high end for weaker potency in that assay.
